Data on ten compounds can be found in patent EP2698385A1, “Detection of synthetic cannabinoids” (priority 2012, dated 2014).

Test [1] concerns antiserum raised to Immunogen I (Hapten A-BTG). As to the kind of experiment: Competitive ELISA microtiter plate assay (Example 19), antiserum raised to Immunogen I, Hapten A-HRP conjugate as detection reagent. It counts as binding, sheep. The following applies: for binding to the antibody produced from Immunogen I: result in words. The protocol:
(§1) Aqueous solutions of the immunogens prepared in examples 5 and 13 were formulated with Freund's Complete Adjuvant (FCA) to form emulsions consisting of 2mg/ml Immunogen I and 2mg/ml of Immunogen II in 50%(v/v) FCA. Three sheep were immunised with each emulsion (1° immunisations), 0.25ml being intramuscularly injected at four sites in the rump of each animal. Subsequent immunisations (boosts 2-8) contained 1mg/ml Immunogen I and 1mg/ml Immunogen II. All boosts were emulsified in 50%(v/v) Freund's Incomplete Adjuvant (FIA) and administered to the appropriate sheep in the same manner as the 1° immunisations, at monthly intervals. Blood sampling took place 7-14 days after each boost. Each sample was processed to produce antiserum, which was further purified by caprylic acid and ammonium sulphate precipitation to yield an immunoglobulin (Ig) fraction. The Ig fraction was evaluated by competitive ELISA microtiter plate assay, as described in example 19 below.
(§2) Example 19: Development of competitive ELISA for JWH synthetic cannabinoids and metabolites. • (a) The wells of an enhanced binding 96 well polystyrene microtiter plate were coated with the Ig fraction of the antiserum raised to Immunogen I (Hapten A-BTG - example 5) and diluted in 10mM Tris, pH8.5 (125µl/well). The appropriate antibody coating concentration was determined using standard ELISA checkerboard techniques. The plate was incubated for 2 hours at 37°C, washed 4 times over a 10-minute period with Tris buffered saline containing Tween 20 (TBST) and tapped dry. Standard solutions of JWH synthetic cannabinoids, metabolites and selected molecules were prepared in TBST and 50µl of each was added to the appropriate wells. 75µl of conjugate (Hapten A-HRP) diluted in Tris buffer containing EDTA, D-mannitol, sucrose, thimerosal and BSA, was added to each of the wells. The appropriate dilution of conjugate was also determined using standard ELISA checkerboard techniques. The plate was incubated at 25°C for 1 hour. The excess unbound conjugate was removed by washing 6 times over a 10-minute period with TBST and tapped dry. 125µl of tetramethylbenzedine (TMB) substrate solution was added to each well of the plate that was then incubated for 15-20 minutes in the dark at room temperature. The reaction was terminated by addition of 125µl of 0.2M sulphuric acid to each well. The absorbance was then measured at 450nm using a microtiter plate reader. Employing each series of standards, calibration curves were generated and these were used to determine the specificity of the immunoassay for the JWH synthetic cannabinoids, metabolites and selected molecules. The results of this study are presented in Tables 1 to 3, cross-reactivity being calculated according to the following formula: %CR = […] /IC50,CR X 100 [formula] Where %CR is the percentage cross-reactivity, IC50, YWH-018 is the concentration of JWH-018 that causes 50% displacement of signal and IC50, CR is the concentration of JWH synthetic cannabinoid/metabolite/selected molecule that causes 50% displacement of signal.
Table 1: Data generated from a competitive microtiter plate assay for JWH synthetic cannabinoids and metabolites, employing antiserum raised to Immunogen II (Hapten B-BTG) and conjugate (Hapten A-HRP) as detection reagent. (b) In a similar manner to that described in Example 19(a), the wells of a 96 well microtiter plate were coated with the Ig fraction of the antiserum raised to Immunogen II ([…]). Conjugate (Hapten A-HRP) was employed as a detection reagent. […]
For orientation: In an ELISA, binding on a coated surface is turned into a signal by an enzyme label.

Test [2] concerns antibodies raised to Immunogens I & II. As to the kind of experiment: Competitive ELISA (Example 19), sensitivity and cross-reactivity of selected molecules, one result for both antibodies. It is filed as binding, sheep. The following applies: result in words. Here is the method:
as §1, §2
Table 2: Data generated from a competitive microtiter plate assay for JWH synthetic cannabinoids and metabolites, employing antiserum raised to Immunogen I (Hapten A-BTG) and conjugate (Hapten A-HRP) as detection reagent. • (c) The resulting competitive ELISA for synthetic cannabinoids and metabolites was further employed to analyse urine and serum samples from 20 patients (Table 3). • (d) The resulting competitive ELISA for synthetic cannabinoids and metabolites was also employed to test for the 5-fluoropentyl derivative of JWH-018, (1-(5-fluoropentyl)indol-3yl (1-naphthyl) methanone (Table 4).

Where [3] appears, read: Table 2, 40 ng/ml highest concentration tested.
[4] abbreviates: Table 2, CR based on 100% for JWH-018.

The term IC50 denotes the point on the concentration scale where inhibition reaches its midpoint. As to `O=C(c1cccc2ccccc12)c1c[nH]c2ccccc12` [3-(1-naphthoyl)-1H-Indole, 3-(1-naphthoyl)-1H-indole], the IC50 in test [1] (setting [3]) was found to be 3.84 ng/mL. Also, the “% Cross-reactivity” value in test [1] (setting [4]) was found to be 70.57%.
As to `O=C(O)CCCCn1cc(C(=O)c2cccc3ccccc23)c2ccccc21` [JWH-018 N-pentanoic acid metabolite], the “binding / cross-reaction with antibodies raised from Immunogens I and II” value in test [2] is “bind”. In addition, the IC50 in test [1] (setting [3]) stood at 0.42 ng/mL. Further, the “% Cross-reactivity” value in test [1] (setting [4]) is recorded as 645.24%.
Turning to `O=C(c1cccc2ccccc12)c1cn(CCCCCO)c2ccccc12` [JWH-018 N-(5-hydroxypentyl) metabolite], in test [1] (setting [3]), the IC50 worked out at 0.18 ng/mL. In test [1] (setting [4]), the “% Cross-reactivity” value stood at 1505.56%.
On the same counts, the results for `O=C(c1cccc2ccccc12)c1cn(CCN2CCOCC2)c2ccccc12` [WIN 55,225 (other name JWH-200), JWH-200] are 0.31 ng/mL and 874.19%.
As for `CCCCCn1cc(C(=O)c2ccc(Cl)c3ccccc23)c2ccccc21` [JWH-398], the “binding / cross-reaction with antibodies raised from Immunogens I and II” value in test [2] is “bind”. Moreover, the IC50 ng/ml in test [1] (setting [3]) is >> 40 ng/ml. Further, the “% Cross-reactivity” value in test [1] (setting [4]) is listed as << 6.78%.
Regarding `CCCCCn1cc(C(=O)c2cccc3ccccc23)c2cc(O)ccc21` [JWH-018 5-hydroxyindole metabolite], the IC50 in test [1] (setting [3]) was 0.39 ng/mL. Also, in test [1] (setting [4]), the “% Cross-reactivity” value is recorded as 694.87%. Besides, the “binding to the antibody produced from Immunogen I” value (“binding to the antibody produced” below) in test [1] is “able to bind”.
Take `CCCCCn1cc(C(=O)c2cccc3ccccc23)c2ccc(O)cc21` [JWH-018 6-hydroxyindole metabolite]: in test [1] (setting [3]), the IC50 was 2.04 ng/mL. Further, the “% Cross-reactivity” value in test [1] (setting [4]) amounted to 132.84%. For the same compound, the “binding to the antibody produced” value in test [1] is recorded as “able to bind”.
As for `CCCCCn1cc(C(=O)c2cccc3ccccc23)c2c(O)cccc21` [JWH-018 4-hydroxyindole metabolite], the IC50 in test [1] (setting [3]) was found to be 25.51 ng/mL. Besides, in test [1] (setting [4]), the “% Cross-reactivity” value came out at 10.62%.
The matching figures for `CCCCn1cc(C(=O)c2cccc3ccccc23)c2ccccc21` [JWH-073]: 0.93 ng/mL and 291.40%.
`CCCCCn1cc(C(=O)c2cccc3ccccc23)c2ccccc21` [JWH-018]: the IC50 was 2.71 ng/mL in test [1] (setting [3]) and 2.30 ng/mL in test [1] (first Table 4, Immunogen I). The “% Cross-reactivity” value in test [1] (setting [4]) was 100.00%; in test [1] (first Table 4, Immunogen I, JWH-018 = 100), 100.00%. For the same compound, the “binding to the antibody produced” value in test [1] is recorded as “able to bind”.
